Key:
H1 receptors = H1 receptors (Homo sapiens, UniProt P35367); settings: compared to azelastine and olapatadine; cited from earlier work
[1] = Nasal irritation and histopathology of nasal epithelium in rabbits; type: in vivo, male New Zealand white rabbits; settings: intranasal, doses of 0.312 mg, 0.625 mg and 1.25 mg, all three groups
Description: (§1) The study was carried out on total 24 male New Zealand white rabbits, which were segregated into four groups (G1 to G4, 6 rabbits/group). Mild anaesthesia was induced in all rabbits by inhalation of 2% isoflurane. Three groups (G1-G3) of anaesthetized rabbits were intranasally administered 250 μL of alcaftadine once-daily using the formulations of Examples 10A, 10B, and 10C. A comparator, 250 μL of olopatadine at a concentration of 0.6% w/v, was intranasally administered once-daily to a fourth group G4 of anaesthetized rabbits.
The animals were euthanized by intravenous administration of sodium thiopental injection overdose and nasal epithelium was collected. […] The remaining half of the tissues were stored in 10% neutral buffered formalin for detailed gross histopathological examination such as necrosis, inflammation or any changes during necropsy.

H2 receptors = H2 receptors (Homo sapiens, UniProt P25021); settings: compared to azelastine and olapatadine; cited from earlier work
[2] = Pharmacokinetics after intranasal administration in rabbits; settings: for Tmax: male, New Zealand white, rabbit, plasma, inhaled or intranasal
Description: The pharmacokinetic profiles of the alcaftadine test formulations 4A, 4B, and 4C as well as an olapatdine nasal formulation were each determined on 6 male New Zealand white rabbits.
as §1
Sampling details for the test and reference formulations: Approximately 0.5 mL of blood sample from each rabbit was withdrawn via marginal ear vein into pre-labelled Eppendorf tubes containing 10% EDTA as an anticoagulant. Blood samples were withdrawn at 0 min, 5 min, 10 min, 15 min, 30 min, 60 min, 120 min, 240 min, 480 min and 1440 min after administration of test and reference formulations.
Procedure for sample preparation: Collected blood samples were mixed gently and kept on crushed ice. Plasma samples were separated after centrifugation at 3500 rpm for 10 min at 4° C. Plasma separation was carried out within 30 min of sample collection and stored at −70±10° C. The animals were euthanized by intravenous administration of sodium thiopental injection overdose and nasal epithelium was collected. Half of the tissues of nasal epithelium were homogenized using phosphate buffered solution (20% homogenation) for quantification of alcaftadine and olopatidine. The remaining half of the tissues were stored in 10% neutral buffered formalin for detailed gross histopathological examination such as necrosis, inflammation or any changes during necropsy.
Rabbit plasma and nasal epithelial tissue concentrations of alcaftadine or olopatidine were determined using a fit-for-purpose LC-MS/MS method with LLOQ of 0.500 ng/mL or 0.250 ng/mL, respectively. The pharmacokinetic parameters were evaluated using Phoenix WinNonlin® Ent-Version 8.0 by non-compartmental analysis.

[3] = single administration, doses of 0.625 to 1.25 mg

Sequence of H2 receptors (P25021 whole entry): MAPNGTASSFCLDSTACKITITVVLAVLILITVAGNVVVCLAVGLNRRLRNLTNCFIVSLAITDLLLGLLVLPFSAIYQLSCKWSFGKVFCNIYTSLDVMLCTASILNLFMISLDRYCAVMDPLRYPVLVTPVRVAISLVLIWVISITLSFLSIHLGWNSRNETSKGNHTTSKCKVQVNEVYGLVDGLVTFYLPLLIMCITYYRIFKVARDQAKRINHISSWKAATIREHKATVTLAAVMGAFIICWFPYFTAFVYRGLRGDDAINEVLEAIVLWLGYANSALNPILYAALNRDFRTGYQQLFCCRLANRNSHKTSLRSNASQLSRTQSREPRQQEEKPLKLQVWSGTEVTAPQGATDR
Sequence of H1 receptors (P35367 whole entry): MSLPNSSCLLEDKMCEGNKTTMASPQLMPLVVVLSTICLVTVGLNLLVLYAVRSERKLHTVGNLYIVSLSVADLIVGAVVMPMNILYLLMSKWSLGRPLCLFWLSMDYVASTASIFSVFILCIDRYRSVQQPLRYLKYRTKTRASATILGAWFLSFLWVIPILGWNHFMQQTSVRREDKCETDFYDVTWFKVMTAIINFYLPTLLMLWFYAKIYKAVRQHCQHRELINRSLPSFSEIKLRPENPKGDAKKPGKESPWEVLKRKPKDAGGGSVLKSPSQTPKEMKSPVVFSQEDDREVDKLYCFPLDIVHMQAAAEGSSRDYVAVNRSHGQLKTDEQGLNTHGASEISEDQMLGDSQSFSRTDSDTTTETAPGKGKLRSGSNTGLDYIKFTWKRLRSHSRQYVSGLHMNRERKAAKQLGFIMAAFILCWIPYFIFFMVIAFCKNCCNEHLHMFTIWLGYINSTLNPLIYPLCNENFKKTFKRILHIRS

- Tmax ([2]; 0.312 mg): 4.8 min
- Tmax ([2]; 0.625 mg): 4.8 min
- Tmax ([2]; 1.25 mg): 4.8 min
- area under the curve (AUC0-24h) [2, 3]: dose proportional
- peak plasma concentrations (Cmax) [2, 3]: dose proportional
SMILES: CN1CCC(=C2c3ccccc3CCn3c(C=O)cnc32)CC1 [Alcaftadine, 6,11-dihydro-11-(1-methyl-4-piperidinylidene)-5H-imidazo[2,1-b][3]benzazepine-3-carboxaldehyde]
- binding affinity to H1 receptors (H1 receptors): higher binding affinity
- signs or symptoms of inflammation or irritation [1]: no signs or symptoms of inflammation or irritation were observed
- binding affinity to H2 receptors (H2 receptors): higher binding affinity
- plasma concentration / systemic exposure ([2]; intranasal, rabbits): dose proportional with overall low systemic exposure

— patent publication US20230218630A1, “COMBINATION OF ALCAFTADINE AND A CORTICOSTEROID” (priority 2020, published 2023)
